Results reported in patent publication US20240139221A1, “TREATMENT OF HPV-INDUCED NEOPLASIA” (priority 2022, published 2024).

Experiments:
[1] = Approximate solubility in solvents at 25° C. and 50° C., visual observation; assay type: physicochemical
Method: The maximum volume of each solvent added was 1 mL. Approximate solubility was determined by visual observation.
Maximum volume of each solvent added was 1 mL. Approximate solubility was determined by visual observation.

[2] = Tablet stability study (purity by HPLC); assay type: physicochemical
Method: Tablets were prepared using the excipients and excipient ratios shown in the first column of the following tables. The tablets were then stored under the conditions indicated and periodically sampled and tested for purity by HPLC.

[3] = Bulk stability (accelerated stability, one week; HPLC and XRPD)
Method: Bulk stability: Accelerated stability experiments were conducted at 25° C./92% RH and 40° C./75% RH in an open container, 60° C. in a tight container for one week.
Samples were characterized by XRPD and HPLC and inspected for color change.
Accelerated stability experiments were conducted at 25° C./92% RH in an open container, at 40° C./75% RH in an open container, and at 60° C. in a tight container for one week.

[4] = Solubility in buffers, water and simulated vaginal fluid at 37° C.; settings: for pH of solution at 2 hrs: 37° C.; for solubility at 0.5 h / solubility at 2 h: 37 °C, thermodynamic from solid
Method: About 4 mg of Compound I Pattern 1 was added into 2 mL of buffer solution.
(§1) Solubility was tested in five media, pH 3.0 citrate buffer, pH 4.5 acetate buffer, pH 6.8 phosphate buffer, water, simulated vaginal fluid (pH 4.2) at 37° C. for 0.5 h and 2 h.
The salt amount used is equivalent to 10 mg anhydrous free base. […] The obtained clear solutions were analyzed by pH meter for pH, and solubility was determined by observation.
as §1

[5] = Hygroscopicity by DVS at 25° C.; assay type: physicochemical; settings: DVS 25° C.; for D. (%) Cycle 1: Desorption cycle 1; for D. (%) Cycle 2: Desorption cycle 2; for S. (%) Cycle 1: Sorption cycle 1; for S. (%) Cycle 2: Sorption cycle 2
Method: Hygroscopicity was investigated by DVS at 25° C., using the following method: […]

[6] = excipients Carbomer (49%) + Hydrated Dextrose (49%)
[7] = excipients Carbomer (49%) + Mannitol (49%)
[8] = excipients PC (49%) + Anhydrous Lactose (49%)
[9] = excipients PC (49%) + MCC (49%)
[10] = 25° C., 92% RH, open container, one week
[11] = 40° C., 75% RH, open container, one week
[12] = 60° C., tight container, one week
[13] = acetate buffer, pH 4.5, aqueous buffer
[14] = citrate buffer, pH 3, aqueous buffer
[15] = phosphate buffer, pH 6.8, aqueous buffer
[16] = simulated vaginal fluid, pH 4.2, fassgf or other biorelevant

For `CCOC(=O)[C@H](C)NP(=O)(COCCn1cnc2c(OC)nc(N)nc21)OCc1ccccc1` (stereo partly drawn) [Compound I, ethyl(((2-(2-amino-6-methoxy-9H-purin-9-yl)ethoxy)methyl)(benzyloxy)-phosphoryl)-L-alaninate], the “Solubility (mg/mL) 25° C.” value ([1]; Acetone) was >100 mg/mL, the “Solubility (mg/mL) 50° C.” value ([1]; Acetone) was >500 mg/mL and the “Solubility (mg/mL) 25° C.” value ([1]; Acetonitrile) was >100 mg/mL. For the same molecule, the “Solubility (mg/mL) 50° C.” value ([1]; Acetonitrile) was >500 mg/mL, the “Solubility (mg/mL) 25° C.” value ([1]; Dichloromethane) was >100 mg/mL and the “Solubility (mg/mL) 50° C.” value ([1]; Dichloromethane) was >500 mg/mL. The “Solubility (mg/mL) 25° C.” value ([1]; Ethanol) was >100 mg/mL, the “Solubility (mg/mL) 50° C.” value ([1]; Ethanol) was >500 mg/mL and the “Solubility (mg/mL) 25° C.” value ([1]; Ethyl acetate (EA)) was >100 mg/mL. For the same molecule, the “Solubility (mg/mL) 50° C.” value ([1]; Ethyl acetate (EA)) was >500 mg/mL, the “Solubility (mg/mL) 25° C.” value ([1]; Heptanes) was <2 mg/mL and the “Solubility (mg/mL) 50° C.” value ([1]; Heptanes) was <10 mg/mL. The “Solubility (mg/mL) 25° C.” value ([1]; Isopropanol (IPA)) was >100 mg/mL, the “Solubility (mg/mL) 50° C.” value ([1]; Isopropanol (IPA)) was >500 mg/mL and the “Solubility (mg/mL) 25° C.” value ([1]; Isopropyl acetate) was >100 mg/mL. For the same molecule, the “Solubility (mg/mL) 50° C.” value ([1]; Isopropyl acetate) was >500 mg/mL, the “Solubility (mg/mL) 25° C.” value ([1]; Methanol) was >100 mg/mL and the “Solubility (mg/mL) 50° C.” value ([1]; Methanol) was >500 mg/mL. The “Solubility (mg/mL) 25° C.” value ([1]; Methyl ethyl ketone) was >100 mg/mL, the “Solubility (mg/mL) 50° C.” value ([1]; Methyl ethyl ketone) was >500 mg/mL and the “Solubility (mg/mL) 25° C.” value ([1]; Methyl t-butyl ether (MTBE)) was <2 mg/mL. For the same molecule, the “Solubility (mg/mL) 50° C.” value ([1]; Methyl t-butyl ether (MTBE)) was <10 mg/mL, the “Solubility (mg/mL) 25° C.” value ([1]; Tetrahydrofuran) was >100 mg/mL and the “Solubility (mg/mL) 50° C.” value ([1]; Tetrahydrofuran) was 167 to 250 mg/mL. For the same molecule, the “Solubility (mg/mL) 25° C.” value ([1]; Water) was 20 to 25 mg/mL, the “Solubility (mg/mL) 50° C.” value ([1]; Water) was 25 to 27 mg/mL and the “purity by HPLC, 0 months” value [2, 6] was 99.52. For the same molecule, the “purity by HPLC, 1 month 25 C./60% RH” value [2, 6] was 82.44, the “purity by HPLC, 1 month 40 C./75% RH” value [2, 6] was 0.17 and the “purity by HPLC, 0 months” value [2, 7] was 98.87. The “purity by HPLC, 1 month 25 C./60% RH” value [2, 7] was 91.54, the “purity by HPLC, 1 month 40 C./75% RH” value [2, 7] was 6.75 and the “purity by HPLC, 0 months” value [2, 8] was 99.40. For the same molecule, the “purity by HPLC, 1 month 25 C./60% RH” value [2, 8] was 95.98, the “purity by HPLC, 1 month 40 C./75% RH” value [2, 8] was 41.3 and the “purity by HPLC, 0 months” value [2, 9] was 98.64. For the same molecule, the “purity by HPLC, 1 month 25 C./60% RH” value [2, 9] was 97.16, the “purity by HPLC, 1 month 40 C./75% RH” value [2, 9] was 46.11 and the XRPD after storage ([3]; 25° C., 84% RH, open container, 2 days) was “No change”. For the same molecule, the “HPLC (purity) after storage” value [3, 10] was 98.5%, the XRPD after storage [3, 10] was “No change” and the “HPLC (purity) after storage” value [3, 11] was 95.2%. The XRPD after storage [3, 11] was “No change”, the “HPLC (purity) after storage” value [3, 12] was 98.5% and the XRPD after storage [3, 12] was “No change”. For the same molecule, the “HPLC (purity), Initial” value ([3]; initial, before storage) was 98.7%, the “pH of solution at 2 hrs” value ([4]; Simulated vaginal fluid (pH adjusted with 0.2N NaOH)) was “(5.53)” and the “pH of solution at 2 hrs” value ([4]; Water) was “(7.55)”. The solubility at 0.5 h [4, 13] was > 2 mg/mL, the solubility at 2 h [4, 13] was > 2 mg/mL and the solubility at 0.5 h [4, 14] was > 2 mg/mL. The solubility at 2 h [4, 14] was > 2 mg/mL, the “pH of solution at 2 hrs” value ([4]; pH 3.0 100 mM citrate buffer) was “(2.98)” and the “pH of solution at 2 hrs” value ([4]; pH 4.5 50 mM acetate buffer) was “(4.50)”. The “pH of solution at 2 hrs” value ([4]; pH 6.8 50 mM phosphate buffer) was “(6.81)”, the solubility at 0.5 h [4, 15] was > 2 mg/mL and the solubility at 2 h [4, 15] was > 2 mg/mL. The solubility at 0.5 h [4, 16] was > 2 mg/mL, the solubility at 2 h [4, 16] was > 2 mg/mL and the solubility at 0.5 h ([4]; water) was > 2 mg/mL. The solubility at 2 h ([4]; water) was > 2 mg/mL, the “D. (%) Cycle 1” value ([5]; 0% RH) was 0.00% and the “D. (%) Cycle 1” value ([5]; 10% RH) was 0.11%. For the same molecule, the “D. (%) Cycle 1” value ([5]; 20% RH) was 0.23%, the “D. (%) Cycle 1” value ([5]; 30% RH) was 0.47% and the “D. (%) Cycle 1” value ([5]; 40% RH) was 0.60%. For the same molecule, the “D. (%) Cycle 2” value ([5]; 0% RH) was 0.19%, the “D. (%) Cycle 2” value ([5]; 10% RH) was 0.37% and the “D. (%) Cycle 2” value ([5]; 20% RH) was 0.57%. For the same molecule, the “D. (%) Cycle 2” value ([5]; 30% RH) was 0.83%, the “D. (%) Cycle 2” value ([5]; 40% RH) was 1.09% and the “D. (%) Cycle 2” value ([5]; 50% RH) was 1.48%. For the same molecule, the “D. (%) Cycle 2” value ([5]; 60% RH) was 1.96%, the “D. (%) Cycle 2” value ([5]; 70% RH) was 2.78% and the “D. (%) Cycle 2” value ([5]; 80% RH) was 4.33%. For the same molecule, the “D. (%) Cycle 2” value ([5]; 90% RH) was 9.10%, the “D. (%) Cycle 2” value ([5]; 95% RH) was 14.32% and the “S. (%) Cycle 1” value ([5]; 0% RH) was 0.00%. For the same molecule, the “S. (%) Cycle 1” value ([5]; 10% RH) was 0.08%, the “S. (%) Cycle 1” value ([5]; 20% RH) was 0.17% and the “S. (%) Cycle 1” value ([5]; 30% RH) was 0.28%. For the same molecule, the “S. (%) Cycle 1” value ([5]; 40% RH) was 0.41%, the “S. (%) Cycle 1” value ([5]; 50% RH) was 0.61% and the “S. (%) Cycle 1” value ([5]; 60% RH) was 0.85%. For the same molecule, the “S. (%) Cycle 1” value ([5]; 70% RH) was 1.14%, the “S. (%) Cycle 1” value ([5]; 80% RH) was 1.64% and the “S. (%) Cycle 1” value ([5]; 90% RH) was 4.27%. The “S. (%) Cycle 1” value ([5]; 95% RH) was 14.32%, the “S. (%) Cycle 2” value ([5]; 0% RH) was 0.19% and the “S. (%) Cycle 2” value ([5]; 10% RH) was 0.22%. The “S. (%) Cycle 2” value ([5]; 20% RH) was 0.30%, the “S. (%) Cycle 2” value ([5]; 30% RH) was 0.44% and the “S. (%) Cycle 2” value ([5]; 40% RH) was 0.62%.
